Tests used:
Type in all cases: in vitro ADME
Lipase from Hog Pancreas [1] = assay: Stability of COMPOUND A with Lipase, Procedure A (premix of Lipase and COMPOUND B, then COMPOUND A); conditions: 10 min, 0.55 mg/mL (11 U/mL) Lipase
Description: 240 mg Lipase (Lipase from Hog Pancreas, 20.6 U/mg Lipase, CAS No. 9001-62-1, Fluka, Art. No. 62300) were weighed into a vial and dissolved by stirring in 10 mL phosphate buffered saline solution pH 6.5. Any undissolved material was removed by centrifugation during 5 min at 5000 rpm. The supernatant was used for the experiments and diluted with PBS to obtain the Lipase at the final concentration of 0.55 mg/mL.
Procedure A (Premix of Lipase and COMPOUND B, Followed by Addition of Compound A):
1600 μL of Lipase in phosphate buffered saline solution (from stock C) to obtain a final enzyme concentration of 0.55 mg/mL) were mixed with 200 μL of COMPOUND B (stock B) and pre-incubated during 5 min at 37° C. At time zero 200 μL of drug solution (stock A) were added. The mixture was incubated at 37° C. After 10 min, the reaction was stopped by dilution of one part of the mixture with 3 parts of isopropanol.

Lipase from Hog Pancreas [2] = assay: Stability of COMPOUND A with Lipase, Procedure B' (as B, lower COMPOUND B concentrations); conditions: after 10 min incubation, 0.55 mg/mL (11 U/mL) Lipase
Description: 100 μL of drug solution (stock A) were mixed with 0, 12, 25 or 50 μL esterase inhibitor solution (stock B) and 100, 88, 75 or 50 μL of FeSSIF concentrate (Lecithin37.5 mM and Sodium taurocholate 150 mM) were added to make up 200 μL of a solution with COMPOUND B concentrations of 0, 12, 25 or 50 μg/mL. At time zero, 800 μL of Lipase in phosphate buffered saline solution (from stock C to obtain final enzyme concentrations of 0.55 mg/mL) were added. The reaction mixture was incubated at 37° C. and stopped after 10 minutes by diluting one part of the reaction mixture with 3 parts Isopropanol.
Procedure B′ (Premix of COMPOUND B and COMPOUND A, Followed by Addition of Lipase):
The tests were repeated as described under procedure B but with final COMPOUND B concentrations of 0, 3, 6, 12 μg/ml.

[3] = Stability of COMPOUND A in human intestinal fluids, Procedure D (in solution), fasted; conditions: fasted intestinal fluid
Description: Procedure D (COMPOUND A and COMPOUND B in Solution):
Fasted Intestinal Fluids: the fluids from 4 different subjects were collected with a naso-jejunal tube after fasting overnight and pooled.
5 mg of thioisobutyric acid S-(2-{[1-(2-ethyl-butyl)-cyclohexanecarbonyl]-amino}-phenyl)ester (COMPOUND A) were dissolved in 50 μL ethanol and 950 μL mixed micelles solution containing Soybean lecithin/Sodium glycocholate (158/97 mg/mL) in water were added.
3 mg of 1-(3-hexyl-4-oxo-oxetan-2-yl)tridecan-2-yl 2-formyl-amino-4-methyl-pentanoate (COMPOUND B) were dissolved in 1 mL of ethanol. 100 μL of this solution was diluted with 900 μL of FeSSIF concentrate (10×).
100 μL of drug solution (stock D) were mixed with 100 μL of esterase inhibitor solution (stock E) and 800 μL of pro-FaSSIF were added.
100 μL of premix (stock F) were mixed with 200 μL of drug solution (stock A).
200 μL of premix (stock F) were mixed with 100 μL of drug solution (stock A). 315 μL of intestinal fluids (fasted and stimulated) were pre-heated at 37° C. for about 5 min. At time zero, 35 μL of premix solutions were added, i.e. either stock A, stock G, stock H or stock F, to obtain 50 μg/mL of COMPOUND A and final concentrations of COMPOUND B of 0, 1, 2 or 3 μg/mL. The samples were incubated at 37° C. while gently stirring. The reaction was stopped after 2 min or after 10 min by dilution of 1 part of the reaction mixture with 3 parts of isopropanol and the resulting mixture was centrifuged for 5 min at 5′000 rpm. The supernatant was analyzed by HPLC.

[4] = Stability of COMPOUND A in human intestinal fluids, Procedure F (suspension, no separation of excess), second table; conditions: fasted HIF
Description: Stimulated Intestinal Fluids: the fluids from 3 different subjects were collected after fasting overnight with a nasojejunal tube and pooled. For the stimulation, twenty minutes before the beginning of the collection, volunteers were provided with chewing-gums and were asked to chew over a 15 minutes period, maintaining the taste by replacing the sticks of gum approximately every 2 minutes.
Procedure F (COMPOUND A and COMPOUND B in suspension, the degradation immediately stopped without separation of excess compound): Stock K=COMPOUND B suspension (0.5 mg/mL)
Dilute 1 part of COMPOUND B suspension (stock J) with 3 parts of FeSSIF pH6.5 solution.
500 μL of freshly thawed intestinal fluids (fasted and stimulated state) were added to 1.2 mg of COMPOUND A in a 1 mL glass vial. The suspended compound was stirred for 15 min at 37° C. to obtain wetting and a homogenous suspension. In parallel, 4 glass vials were prepared with 20 μL of a COMPOUND B suspension at different concentrations. These concentrations were obtained by mixing FeSSIF pH6.5 and COMPOUND B suspension (stock K) in different ratios, respectively 1:[…], 1:1, 0:1 to obtain 0, 1, 2 and 4% related to COMPOUND A. At time zero, 100 μL of COMPOUND A suspension preincubated at 37° C. were added to the 20 μL COMPOUND B suspension. The mixture was incubated at 37° C. with gentle stirring. After 15 min and 60 min, the reaction was stopped by mixing a 50 μL sample with 150 μL isopropanol and centrifuged at 5′000 rpm during 5 min. The clear supernatant was analyzed for the hydrolysis product and its oxidized form by HPLC.

Concentration of COMPOUND A (Lipase from Hog Pancreas [1]; COMPOUND B 0 μg/mL): 14.7 µg/mL | Concentration of COMPOUND A (Lipase from Hog Pancreas [1]; COMPOUND B 50 μg/mL): 46.4 µg/mL | Concentration of COMPOUND A (Lipase from Hog Pancreas [1]; COMPOUND B 100 μg/mL): 48.2 µg/mL | Concentration of COMPOUND A (Lipase from Hog Pancreas [2]; COMPOUND B 0 μg/ml): 14.2 µg/mL | Concentration of COMPOUND A (Lipase from Hog Pancreas [2]; COMPOUND B 3 μg/ml): 45.9 µg/mL | Concentration of COMPOUND A (Lipase from Hog Pancreas [2]; COMPOUND B 6 μg/ml): 46.5 µg/mL | Concentration of COMPOUND A (Lipase from Hog Pancreas [2]; COMPOUND B 12 μg/ml): 45.7 µg/mL | Concentration of COMPOUND A ([3]; COMPOUND B 0 μg/mL, 2 min, theoretical 50 μg/mL): 0.48 µg/mL | Concentration of COMPOUND A ([3]; COMPOUND B 0 μg/mL, 10 min): 0.48 µg/mL | Concentration of COMPOUND A ([3]; COMPOUND B 1 μg/mL, 2 min): 18.00 µg/mL | Concentration of COMPOUND A ([3]; COMPOUND B 1 μg/mL, 10 min): 1.58 µg/mL | Concentration of COMPOUND A ([3]; COMPOUND B 2 μg/mL, 2 min): 36.91 µg/mL | Concentration of COMPOUND A ([3]; COMPOUND B 2 μg/mL, 10 min): 28.59 µg/mL | Concentration of COMPOUND A ([3]; COMPOUND B 3 μg/mL, 2 min): 43.72 µg/mL | Concentration of COMPOUND A ([3]; COMPOUND B 3 μg/mL, 10 min): 37.24 µg/mL | Concentration of COMPOUND A ([4]; COMPOUND B 0 μg/mL (0%), T = 15 min): 1569.58 µg/mL | Concentration of COMPOUND A ([4]; COMPOUND B 0 μg/mL (0%), T = 60 min): 400.63 µg/mL | Concentration of COMPOUND A ([4]; COMPOUND B 20 μg/mL (1%), T = 15 min): 2034.38 µg/mL | Concentration of COMPOUND A ([4]; COMPOUND B 20 μg/mL (1%), T = 60 min): 1503.21 µg/mL | Concentration of COMPOUND A ([4]; COMPOUND B 40 μg/mL (2%), T = 15 min): 2163.01 µg/mL | Concentration of COMPOUND A ([4]; COMPOUND B 40 μg/mL (2%), T = 60 min): 1515.41 µg/mL | Concentration of COMPOUND A ([4]; COMPOUND B 80 μg/mL (4%), T = 15 min): 1945.50 µg/mL | Concentration of COMPOUND A ([4]; COMPOUND B 80 μg/mL (4%), T = 60 min): 1449.03 µg/mL
Structure (SMILES): CCC(CC)CC1(C(=O)Nc2ccccc2SC(=O)C(C)C)CCCCC1 [COMPOUND A, thioisobutyric acid S-(2-{[1-(2-ethyl-butyl)-cyclohexanecarbonyl]-amino}-phenyl)ester]

— patent US20100144853A1, “NOVEL COMBINED ADMINISTRATION” (priority 2008, published 2010)
